# Measured values published in ChEMBL document CHEMBL3217526, “Bioguided discovery and pharmacophore modeling of the mycotoxic indole diterpene alkaloids penitrems as breast cancer proliferation, migration, and invasion inhibitors” (Medchemcomm, 2013).
# What was measured:
# Format in all cases: functional
# SNB-19 = assay: Cytotoxicity against human SNB19 cells assessed as growth inhibition at 10 uM; settings: read-out: GI
# BT-549 = assay: Cytotoxicity against human BT549 cells assessed as growth inhibition at 10 uM; settings: read-out: GI
# SF-268 = assay: Cytotoxicity against human SF268 cells assessed as growth inhibition at 10 uM; settings: read-out: GI
# NCI-H226 = assay: Cytotoxicity against human NCI-H226 cells assessed as growth inhibition at 10 uM; settings: read-out: GI
# NCI-H23 = assay: Cytotoxicity against human NCI-H23 cells assessed as growth inhibition at 10 uM; settings: read-out: GI
# HCT-116 = assay: Cytotoxicity against human HCT116 cells assessed as growth inhibition at 10 uM; settings: read-out: GI
# [1] = Cytotoxicity against human UO31 cells assessed as growth inhibition at 10 uM; settings: UO-31, read-out: GI
# MDA-MB-231 [2] = assay: Antiinvasive activity against human MDA-MB-231 cells assessed as inhibition of cell invasion at 15 uM after 24 hrs by BME Cell invasion assay kit; settings: MDA-MB-231, 24 h
# MDA-MB-231 [3] = assay: Cytotoxicity against human MDA-MB-231 cells assessed as growth inhibition at 10 uM; settings: read-out: GI
# SF-295 = assay: Cytotoxicity against human SF295 cells assessed as growth inhibition at 10 uM; settings: read-out: GI
# T47D = assay: Cytotoxicity against human T47D cells assessed as growth inhibition at 10 uM; settings: read-out: GI
# LOX IMVI = assay: Cytotoxicity against human LOXIMVI cells assessed as growth inhibition at 10 uM; settings: read-out: GI
# CAKI-1 = assay: Cytotoxicity against human CAKI-1 cells assessed as growth inhibition at 10 uM; settings: read-out: GI
# KM12 = assay: Cytotoxicity against human KM12 cells assessed as growth inhibition at 10 uM; settings: read-out: GI
# SK-MEL-2 = assay: Cytotoxicity against human SK-MEL-2 cells assessed as growth inhibition at 10 uM; settings: read-out: GI
# [4] = Cytotoxicity against human OVCAR3 cells assessed as growth inhibition at 10 uM; settings: OVCAR-3, read-out: GI
# SK-MEL-28 = assay: Cytotoxicity against human SK-MEL-28 cells assessed as growth inhibition at 10 uM; settings: read-out: GI
# SNB-75 = assay: Cytotoxicity against human SNB75 cells assessed as growth inhibition at 10 uM; settings: read-out: GI
# NCI-H522 = assay: Cytotoxicity against human NCI-H522 cells assessed as growth inhibition at 10 uM; settings: read-out: GI
# U-251 = assay: Cytotoxicity against human U251 cells assessed as growth inhibition at 10 uM; settings: read-out: GI
# SF-539 = assay: Cytotoxicity against human SF539 cells assessed as growth inhibition at 10 uM; settings: read-out: GI
# [5] = Cytotoxicity against human OVCAR5 cells assessed as growth inhibition at 10 uM; settings: OVCAR-5, read-out: GI
# SK-OV-3 = assay: Cytotoxicity against human SKOV3 cells assessed as growth inhibition at 10 uM; settings: read-out: GI
# CCRF-CEM = assay: Cytotoxicity against human CCRF-CEM cells assessed as growth inhibition at 10 uM; settings: read-out: GI
# M14 = assay: Cytotoxicity against human M14 cells assessed as growth inhibition at 10 uM; settings: read-out: GI
# [6] = Cytotoxicity against human EKVX cells assessed as growth inhibition at 10 uM; settings: read-out: GI
# DU-145 = assay: Cytotoxicity against human DU145 cells assessed as growth inhibition at 10 uM; settings: read-out: GI
# TK-10 = assay: Cytotoxicity against human TK10 cells assessed as growth inhibition at 10 uM; settings: read-out: GI
# HCC 2998 = assay: Cytotoxicity against human HCC2998 cells assessed as growth inhibition at 10 uM; settings: read-out: GI
# IGROV-1 = assay: Cytotoxicity against human IGROV1 cells assessed as growth inhibition at 10 uM; settings: read-out: GI
# A549 = assay: Cytotoxicity against human A549 cells assessed as growth inhibition at 10 uM; settings: read-out: GI
# NCI-H460 = assay: Cytotoxicity against human NCI-H460 cells assessed as growth inhibition at 10 uM; settings: read-out: GI
# 786-0 = assay: Cytotoxicity against human 786-0 cells assessed as growth inhibition at 10 uM; settings: read-out: GI
# SK-MEL-5 = assay: Cytotoxicity against human SK-MEL-5 cells assessed as growth inhibition at 10 uM; settings: read-out: GI
# MDA-MB-435 = assay: Cytotoxicity against human MDA-MB-435 cells assessed as growth inhibition at 10 uM; settings: read-out: GI
# [7] = Cytotoxicity against human Hs578T cells assessed as growth inhibition at 10 uM; settings: Hs-578T, read-out: GI
# MOLT-4 = assay: Cytotoxicity against human MOLT4 cells assessed as growth inhibition at 10 uM; settings: read-out: GI
# [8] = Cytotoxicity against human UACC257 cells assessed as growth inhibition at 10 uM; settings: UACC-257, read-out: GI
# NCI-H322M = assay: Cytotoxicity against human NCI-H322M cells assessed as growth inhibition at 10 uM; settings: read-out: GI
# PC-3 = assay: Cytotoxicity against human PC3 cells assessed as growth inhibition at 10 uM; settings: read-out: GI
# ACHN = assay: Cytotoxicity against human ACHN cells assessed as growth inhibition at 10 uM; settings: read-out: GI
# K562 = assay: Cytotoxicity against human K562 cells assessed as growth inhibition at 10 uM; settings: read-out: GI
# RXF 393 = assay: Cytotoxicity against human RXF393 cells assessed as growth inhibition at 10 uM; settings: read-out: GI
# MCF7 = assay: Cytotoxicity against human MCF7 cells assessed as growth inhibition at 10 uM; settings: read-out: GI
# HL-60(TB) = assay: Cytotoxicity against human HL-60(TB) cells assessed as growth inhibition at 10 uM; settings: read-out: GI
# MDA-MB-468 = assay: Cytotoxicity against human MDA-MB-468 cells assessed as growth inhibition at 10 uM; settings: read-out: GI
# SW-620 = assay: Cytotoxicity against human SW620 cells assessed as growth inhibition at 10 uM; settings: read-out: GI
# SR = assay: Cytotoxicity against human SR cells assessed as growth inhibition at 10 uM; settings: read-out: GI
# HT-29 = assay: Cytotoxicity against human HT-29 cells assessed as growth inhibition at 10 uM; settings: read-out: GI
# [9] = Cytotoxicity against human HCT15 cells assessed as growth inhibition at 10 uM; settings: HCT-15, read-out: GI
# [10] = Cytotoxicity against human UACC62 cells assessed as growth inhibition at 10 uM; settings: UACC-62, read-out: GI
# [11] = Cytotoxicity against human OVCAR8 cells assessed as growth inhibition at 10 uM; settings: OVCAR-8, read-out: GI
# SN12C = assay: Cytotoxicity against human SN12C cells assessed as growth inhibition at 10 uM; settings: read-out: GI
# HOP-62 = assay: Cytotoxicity against human HOP62 cells assessed as growth inhibition at 10 uM; settings: read-out: GI
# Malme-3M = assay: Cytotoxicity against human MALME-3M cells assessed as growth inhibition at 10 uM; settings: read-out: GI
# COLO 205 = assay: Cytotoxicity against human COLO205 cells assessed as growth inhibition at 10 uM; settings: read-out: GI
smiles,measurement,setting,value
C=C(C)[C@H]1O[C@H]2CC[C@@]3(C)[C@@](O)(CC[C@H]4[C@@H]5OC(C)(C)[C@H]6C[C@@H]7C(=C)Cc8c(Cl)cc9[nH]c(c5c9c8[C@@]76O)[C@@]43C)[C@@]23O[C@H]3[C@H]1O [PENITREM A],inhibition of growth at 10 µM,SNB-19,67.7%
same,inhibition of growth at 10 µM,BT-549,98.2%
same,inhibition of growth at 10 µM,SF-268,71%
same,inhibition of growth at 10 µM,NCI-H226,76.8%
same,inhibition of growth at 10 µM,NCI-H23,88.6%
same,inhibition of growth at 10 µM,HCT-116,67.4%
same,inhibition of growth at 10 µM,[1],41%
same,inhibition at 15 µM,MDA-MB-231 [2],> 75%
same,inhibition of growth at 10 µM,MDA-MB-231 [3],97.5%
same,inhibition of growth at 10 µM,SF-295,57.1%
same,inhibition of growth at 10 µM,T47D,73.9%
same,inhibition of growth at 10 µM,LOX IMVI,79.4%
same,inhibition of growth at 10 µM,CAKI-1,35.5%
same,inhibition of growth at 10 µM,KM12,71.5%
same,inhibition of growth at 10 µM,SK-MEL-2,95.1%
same,inhibition of growth at 10 µM,[4],92.6%
same,inhibition of growth at 10 µM,SK-MEL-28,83.4%
same,inhibition of growth at 10 µM,SNB-75,53.7%
same,inhibition of growth at 10 µM,NCI-H522,77.1%
same,inhibition of growth at 10 µM,U-251,85.1%
same,inhibition of growth at 10 µM,SF-539,89%
same,inhibition of growth at 10 µM,[5],105%
same,inhibition of growth at 10 µM,SK-OV-3,109%
same,inhibition of growth at 10 µM,CCRF-CEM,57.2%
same,inhibition of growth at 10 µM,M14,62.6%
same,inhibition of growth at 10 µM,[6],76.3%
same,inhibition of growth at 10 µM,DU-145,85.5%
same,inhibition of growth at 10 µM,TK-10,98.6%
same,inhibition of growth at 10 µM,HCC 2998,77%
same,inhibition of growth at 10 µM,IGROV-1,74.9%
same,inhibition of growth at 10 µM,A549,73.7%
same,inhibition of growth at 10 µM,NCI-H460,85.5%
same,inhibition of growth at 10 µM,786-0,93.1%
same,inhibition of growth at 10 µM,SK-MEL-5,68.3%
same,inhibition of growth at 10 µM,MDA-MB-435,52.9%
same,inhibition of growth at 10 µM,[7],94%
same,inhibition of growth at 10 µM,MOLT-4,53.2%
same,inhibition of growth at 10 µM,[8],76.2%
same,inhibition of growth at 10 µM,NCI-H322M,65.2%
same,inhibition of growth at 10 µM,PC-3,39.3%
same,inhibition of growth at 10 µM,ACHN,75.2%
same,inhibition of growth at 10 µM,K562,66.1%
same,inhibition of growth at 10 µM,RXF 393,76.5%
same,inhibition of growth at 10 µM,MCF7,55.8%
same,inhibition of growth at 10 µM,HL-60(TB),74.7%
same,inhibition of growth at 10 µM,MDA-MB-468,69.6%
same,inhibition of growth at 10 µM,SW-620,93.3%
same,inhibition of growth at 10 µM,SR,46%
same,inhibition of growth at 10 µM,HT-29,86.9%
same,inhibition of growth at 10 µM,[9],78.7%
same,inhibition of growth at 10 µM,[10],74.9%
same,inhibition of growth at 10 µM,[11],83.2%
same,inhibition of growth at 10 µM,SN12C,73.3%
same,inhibition of growth at 10 µM,HOP-62,107%
same,inhibition of growth at 10 µM,Malme-3M,43.2%
same,inhibition of growth at 10 µM,COLO 205,91.3%
